Values quoted from earlier work in patent US12364687B2 (BIOHAVEN PHARMACEUTICAL HOLDING COMPANY LTD., priority 2018, dated 2025).

Settings: taken with meals

food effect on exposure: reduced exposure when taken with meals
SMILES: Nc1nc2ccc(OC(F)(F)F)cc2s1 [riluzole, 6-(trifluoromethoxy)benzothiazol-2-amine]
